Molecular target: Tyrosine-protein kinase JAK1 (Homo sapiens, UniProt P23458)
Test: ADP-Glo Kinase assay
Procedure: An inhibitory effect of the inventive compound on JAK was identified as follows.A control material and a test material were prepared through dilution at each concentration by using DMSO. At the same time, ATP (250 uM) and JAK's substrate (JAK1, IRS-1tide 40 ng/mL) were prepared through dilution in kinase buffer (40 mM Tris-HCl pH 7.5, 20 mM MgCl2, 0.5 mg/mL BSA, 50 uM DTT).A test drug for each concentration, the substrate, the ATP and JAK enzymes were mixed in an eppendorf tube, and then subjected to reaction in an incubator at 30° C. for 40 minutes.ADP-GloFigure US12180185-20241231-P00001 reagent included in ADP-Glo™ Kinase Enzyme System (Promega, USA, V9571) was added to each eppendorf tube, and then subjected to reaction in the incubator at 30° C. for 40 minutes.A kinase detection reagent included in the ADP-Glo™ Kinase Enzyme System was inserted into the eppendorf tube, after which luminescence was measured by using Wallac Victor 2TM with an integration time set to 1 second, such that an inhibitory capacity of the test material on JAKs phosphorylation was analyzed. A concentration of the compound, at which JAK enzyme activity inhibition occurs 50% compared to the control group, was determined as IC50 (nM) of an inhibitor.

Tyrosine-protein kinase JAK1, sequence (P23458 whole entry): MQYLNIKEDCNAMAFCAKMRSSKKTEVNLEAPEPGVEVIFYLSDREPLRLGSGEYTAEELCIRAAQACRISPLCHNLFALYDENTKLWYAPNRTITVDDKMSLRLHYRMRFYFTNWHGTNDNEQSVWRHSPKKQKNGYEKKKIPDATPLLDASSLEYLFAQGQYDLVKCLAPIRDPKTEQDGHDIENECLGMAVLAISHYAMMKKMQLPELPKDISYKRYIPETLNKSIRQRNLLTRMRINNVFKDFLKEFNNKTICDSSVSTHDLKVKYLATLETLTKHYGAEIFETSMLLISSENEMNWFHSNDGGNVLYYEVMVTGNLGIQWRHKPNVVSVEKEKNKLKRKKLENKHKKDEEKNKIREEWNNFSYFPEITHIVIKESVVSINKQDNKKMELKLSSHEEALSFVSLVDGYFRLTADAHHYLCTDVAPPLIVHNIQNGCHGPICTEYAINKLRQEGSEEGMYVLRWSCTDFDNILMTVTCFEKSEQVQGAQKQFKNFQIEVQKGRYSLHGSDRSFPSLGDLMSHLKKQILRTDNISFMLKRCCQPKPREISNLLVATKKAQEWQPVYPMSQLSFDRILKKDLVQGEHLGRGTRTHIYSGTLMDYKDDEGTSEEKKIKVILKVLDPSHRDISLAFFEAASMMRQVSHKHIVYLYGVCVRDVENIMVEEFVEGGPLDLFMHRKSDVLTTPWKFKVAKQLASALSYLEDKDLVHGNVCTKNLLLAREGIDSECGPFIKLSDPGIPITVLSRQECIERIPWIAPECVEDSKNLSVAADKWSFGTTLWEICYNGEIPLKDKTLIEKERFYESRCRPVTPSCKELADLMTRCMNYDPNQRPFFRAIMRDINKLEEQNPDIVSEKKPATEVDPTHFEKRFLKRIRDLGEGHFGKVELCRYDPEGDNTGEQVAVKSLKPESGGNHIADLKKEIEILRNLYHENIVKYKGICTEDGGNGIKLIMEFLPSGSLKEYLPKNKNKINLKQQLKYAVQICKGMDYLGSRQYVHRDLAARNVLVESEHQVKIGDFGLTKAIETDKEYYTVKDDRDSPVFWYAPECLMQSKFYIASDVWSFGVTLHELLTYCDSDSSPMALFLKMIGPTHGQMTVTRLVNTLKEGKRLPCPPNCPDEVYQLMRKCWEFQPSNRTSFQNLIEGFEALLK

`CC(C)=C(C#N)C(=O)Nc1cccc2c(-c3ccnc(NC(=O)C4CC4)c3)n[nH]c12` [US12180185, Example 63] was tested, and the IC50 was greater than 1 µM.
